Laboratory results reported in ChEMBL document CHEMBL1201862, “PubChem BioAssay data set” (2004).
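Growth conditions: 96-well plates. Treatment: test compound, 48 hours, 5 concentrations. Analysis: linear interpolation between bracketing concentrations; unreached endpoints set to highest concentration. GI50 is the concentration that inhibits growth by half.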 Activity calls are given as the source filed them. Rule as the data show it: active = GI50 up to about 1.1 µM and inactive = higher.

Experiments:
Test in all cases: NCI-60 cell line screen, 48 h
SN12C = system: SN12C
HT-29 = system: HT-29
SF-268 = system: SF-268
UACC-62 = system: UACC-62
U-251 = system: U-251
Malme-3M = system: Malme-3M
IGROV-1 = system: IGROV-1
LOX IMVI = system: LOX IMVI
NCI-H23 = system: NCI-H23
OVCAR-4 = system: OVCAR-4
K562 = system: K562
SK-MEL-5 = system: SK-MEL-5
M14 = system: M14
EKVX = system: EKVX
OVCAR-5 = system: OVCAR-5
OVCAR-8 = system: OVCAR-8
RPMI-8226 = system: RPMI-8226
NCI-H522 = system: NCI-H522

Measured: GI50

CC(C)(C)c1ccc2c(c1)S(=O)(=O)Nc1ccc(Cl)cc1NS(=O)(=O)c1cc(C(C)(C)C)ccc1OCCOCCOCCO2
inactive: SN12C 43.5 µM | HT-29 99.3 µM | SF-268 31.1 µM | UACC-62 17.9 µM | U-251 29.2 µM | Malme-3M 27.4 µM | IGROV-1 38 µM | LOX IMVI > 100 µM | NCI-H23 32.4 µM | OVCAR-4 5.69 µM | K562 > 100 µM | SK-MEL-5 28.1 µM | M14 81.7 µM | EKVX 79.6 µM | OVCAR-5 > 100 µM | OVCAR-8 35 µM

Cn1nc(-c2ccccc2)c(C(=O)/C=C/c2ccc(F)cc2)c(N2CCCCC2)c1=O
inactive: SN12C 8.39 µM | HT-29 5.32 µM | SF-268 6.35 µM | UACC-62 6.27 µM | U-251 5.74 µM | IGROV-1 11.5 µM | LOX IMVI 3.5 µM | NCI-H23 4.19 µM | K562 3.39 µM | SK-MEL-5 5.73 µM | M14 5.93 µM | RPMI-8226 2.48 µM | NCI-H522 5.9 µM | EKVX 16.3 µM | OVCAR-8 5.81 µM

CC1CC(C)C(C(O)CC2CC(=O)N(c3ccccc3)C(=O)C2)C(O)C1 (stereo not drawn)
inactive: SN12C > 100 µM | HT-29 > 100 µM | SF-268 > 100 µM | UACC-62 > 100 µM | U-251 > 100 µM | Malme-3M > 100 µM | IGROV-1 > 100 µM | LOX IMVI > 100 µM | NCI-H23 > 100 µM | OVCAR-4 > 100 µM | K562 > 100 µM | M14 > 100 µM | RPMI-8226 > 100 µM | NCI-H522 > 100 µM | EKVX > 100 µM | OVCAR-5 > 100 µM | OVCAR-8 > 100 µM

CCOC(=N)CC(=O)Nc1ccccc1CC
inactive: SN12C > 100 µM | HT-29 > 100 µM | SF-268 > 100 µM | UACC-62 > 100 µM | U-251 > 100 µM | Malme-3M > 100 µM | IGROV-1 > 100 µM | LOX IMVI > 100 µM | NCI-H23 > 100 µM | OVCAR-4 > 100 µM | K562 > 100 µM | SK-MEL-5 > 100 µM | M14 > 100 µM | NCI-H522 > 100 µM | EKVX > 100 µM | OVCAR-5 > 100 µM | OVCAR-8 > 100 µM

CC(C)c1cc(OCC(O)CO)cc(C(C)C)c1 (stereo not drawn)
inactive: SN12C > 100 µM | HT-29 > 100 µM | SF-268 > 100 µM | UACC-62 > 100 µM | U-251 > 100 µM | Malme-3M > 100 µM | IGROV-1 > 100 µM | LOX IMVI > 100 µM | NCI-H23 > 100 µM | OVCAR-4 > 100 µM | K562 > 100 µM | SK-MEL-5 > 100 µM | M14 > 100 µM | NCI-H522 > 100 µM | EKVX > 100 µM | OVCAR-5 > 100 µM | OVCAR-8 > 100 µM

O=C(O)CN(c1ccccc1)S(=O)(=O)c1ccc(NC(=O)c2ccccc2)cc1
inactive: SN12C > 100 µM | HT-29 > 10 µM | SF-268 > 100 µM | UACC-62 > 100 µM | U-251 > 100 µM | Malme-3M > 100 µM | IGROV-1 > 100 µM | LOX IMVI > 100 µM | NCI-H23 > 100 µM | OVCAR-4 > 100 µM | K562 > 100 µM | M14 > 100 µM | RPMI-8226 > 100 µM | NCI-H522 > 100 µM | EKVX > 100 µM | OVCAR-5 > 100 µM | OVCAR-8 > 100 µM

Cc1cc(=O)oc2cc(OCCCOc3ccc4c(C)cc(=O)oc4c3)ccc12
inactive: SN12C > 100 µM | HT-29 > 100 µM | SF-268 > 100 µM | UACC-62 > 100 µM | U-251 > 100 µM | Malme-3M > 100 µM | IGROV-1 > 100 µM | LOX IMVI > 100 µM | NCI-H23 > 100 µM | OVCAR-4 > 100 µM | K562 > 100 µM | SK-MEL-5 > 100 µM | M14 > 100 µM | RPMI-8226 > 100 µM | EKVX > 100 µM | OVCAR-8 > 100 µM

CN(C)CCn1cnc2ncccc2c1=O
inactive: SN12C > 100 µM | HT-29 > 100 µM | SF-268 > 100 µM | UACC-62 > 100 µM | U-251 > 100 µM | Malme-3M > 100 µM | IGROV-1 > 100 µM | LOX IMVI > 100 µM | NCI-H23 > 100 µM | OVCAR-4 > 100 µM | K562 > 100 µM | SK-MEL-5 > 100 µM | M14 > 100 µM | NCI-H522 > 100 µM | EKVX > 100 µM | OVCAR-5 > 100 µM | OVCAR-8 > 100 µM

O=c1[nH]c(-c2ccccc2)nc2cc(Cl)ccc12
inactive: HT-29 > 100 µM | UACC-62 > 100 µM | U-251 > 100 µM | Malme-3M > 100 µM | IGROV-1 > 100 µM | NCI-H23 > 100 µM | OVCAR-4 > 100 µM | K562 > 100 µM | SK-MEL-5 > 100 µM | M14 > 100 µM | RPMI-8226 > 100 µM | EKVX > 100 µM | OVCAR-5 > 100 µM | OVCAR-8 > 100 µM

COC(=O)c1c(-c2cc(OC)c(OC)c(OC)c2)oc2ccccc2c1=O
inactive: SN12C > 100 µM | HT-29 > 100 µM | UACC-62 68.4 µM | U-251 87.3 µM | Malme-3M > 100 µM | IGROV-1 > 100 µM | LOX IMVI 37.4 µM | NCI-H23 > 100 µM | OVCAR-4 68.4 µM | K562 42.8 µM | SK-MEL-5 59.7 µM | M14 > 100 µM | RPMI-8226 36.2 µM | NCI-H522 94 µM | EKVX > 100 µM | OVCAR-5 > 100 µM | OVCAR-8 > 100 µM

O=c1c(O)c(-c2ccccc2)n(O)c2ccc(Cl)cc12
inactive: SN12C 20.8 µM | HT-29 36.8 µM | SF-268 27.4 µM | UACC-62 24.5 µM | U-251 25.8 µM | Malme-3M 60.1 µM | IGROV-1 29.6 µM | LOX IMVI 11.4 µM | NCI-H23 34.7 µM | OVCAR-4 36.3 µM | K562 26.5 µM | SK-MEL-5 17.5 µM | M14 30.8 µM | RPMI-8226 23.4 µM | NCI-H522 21.4 µM | OVCAR-5 38.9 µM | OVCAR-8 21.3 µM

CC1=C(C(=O)Nc2ccc([N+](=O)[O-])cc2)C(c2ccc3c(c2)OCO3)C(C(=O)Nc2ccc([N+](=O)[O-])cc2)=C(C)N1
inactive: SN12C 38.3 µM | HT-29 6.95 µM | SF-268 > 100 µM | UACC-62 5.21 µM | U-251 30.1 µM | Malme-3M 23.9 µM | IGROV-1 8.41 µM | NCI-H23 5.78 µM | OVCAR-4 10.6 µM | K562 4.15 µM | M14 6.78 µM | RPMI-8226 5.04 µM | NCI-H522 24.1 µM | EKVX 8.2 µM | OVCAR-5 59.7 µM | OVCAR-8 3.16 µM

CC(Oc1ccc2cc(C(=O)c3ccccc3)c(=O)oc2c1)C(=O)O (stereo not drawn)
inactive: SN12C > 100 µM | HT-29 > 100 µM | SF-268 > 100 µM | UACC-62 > 100 µM | U-251 > 100 µM | Malme-3M > 100 µM | IGROV-1 > 100 µM | LOX IMVI > 100 µM | NCI-H23 > 100 µM | OVCAR-4 > 100 µM | K562 > 100 µM | SK-MEL-5 > 100 µM | M14 > 100 µM | NCI-H522 > 100 µM | EKVX > 100 µM | OVCAR-8 > 100 µM

COc1ccc(Cc2nc3ccccc3s2)cc1OC
inactive: SN12C 17.1 µM | HT-29 18.7 µM | SF-268 15.8 µM | UACC-62 17.3 µM | U-251 14.6 µM | Malme-3M 17.1 µM | IGROV-1 18.9 µM | NCI-H23 18.1 µM | OVCAR-4 16.4 µM | K562 20.3 µM | SK-MEL-5 16.1 µM | M14 17.5 µM | RPMI-8226 23.7 µM | NCI-H522 17.8 µM | EKVX 20.8 µM | OVCAR-5 22.3 µM | OVCAR-8 16.9 µM

COc1ccc(SS(=O)(=O)c2ccc(OC)cc2)cc1
inactive: SN12C 20.3 µM | HT-29 32.1 µM | SF-268 17.4 µM | UACC-62 20 µM | U-251 14.2 µM | Malme-3M 33.3 µM | IGROV-1 10 µM | LOX IMVI 17.5 µM | NCI-H23 26.1 µM | K562 21.7 µM | SK-MEL-5 15.2 µM | M14 20 µM | RPMI-8226 27.5 µM | NCI-H522 15.3 µM | EKVX 21.1 µM | OVCAR-5 30 µM | OVCAR-8 16.6 µM

O=C1NC(=O)C2C1C1C=C3c4ccccc4N(c4ccccc4)C32[C@H]2C(=O)NC(=O)[C@@H]12 (stereo partly drawn)
inactive: SN12C > 100 µM | HT-29 > 100 µM | SF-268 > 100 µM | UACC-62 > 100 µM | Malme-3M > 100 µM | IGROV-1 > 100 µM | LOX IMVI > 100 µM | OVCAR-4 > 100 µM | K562 > 100 µM | SK-MEL-5 > 100 µM | M14 > 100 µM | RPMI-8226 > 100 µM | NCI-H522 > 100 µM | EKVX > 100 µM | OVCAR-5 > 100 µM | OVCAR-8 > 100 µM

CN(C)CCNC(=O)Cc1ccccc1Nc1c(Cl)cccc1Cl
inactive: SN12C 15.1 µM | HT-29 10.3 µM | SF-268 18.2 µM | UACC-62 18.3 µM | U-251 10.9 µM | IGROV-1 19.1 µM | LOX IMVI 13.6 µM | NCI-H23 18.4 µM | OVCAR-4 20.1 µM | K562 15.3 µM | SK-MEL-5 15 µM | M14 17.3 µM | RPMI-8226 16.6 µM | EKVX 17.4 µM | OVCAR-5 11.7 µM | OVCAR-8 18.9 µM
